# Values of other authors as cited in patent US20040019053A1, “Combination of an allosteric carboxylic inhibitor of matrix metalloproteinase-13 with celecoxib or valdecoxib” (priority 2002, published 2004).
compound,measurement,setting,value
"Cc1onc(-c2ccccc2)c1-c1ccc(S(N)(=O)=O)cc1 [valdecoxib, 4-(5-methyl-3-phenyl-4-isoxazolyl)-benzenesulfonamide]",Tolerability,combined analysis of clinical studies,well tolerated
same,"Overall upper gastrointestinal safety profile (ulcers, perforations, obstructions and GI bleeds)","versus ibuprofen, diclofenac and naproxen",significantly better than the conventional NSAIDs studied
